Experimental data reported in article PMC12628652, “A Validated UPLC‐MS/MS Method for Monitoring Temozolomide and Perillyl Alcohol Metabolites in Biological Matrices: Insights From a Preclinical Pharmacokinetic Study” (Biomedical Chromatography, 2025).
“Also recorded” adds a separate entry of the source.

Key:
[1] = Biodistribution study in rats 4 h after single oral administration of POH and TMZ; assay type: in vivo, Male Wistar rats; conditions: n = 4; for tissue concentrations (brain, liver, spleen, kidney, lung), in words: rats
Protocol: Following blood collection, animals were anesthetized and euthanized, and their organs (kidneys, liver, spleen, brain, and lungs) were promptly excised and stored at −20°C. Tissue samples were homogenized in PBS (pH 7.4) at a ratio of 1 part tissue to 5 parts buffer (w/v), using a mechanical homogenizer equipped with a 5 mm probe.
For chromatographic analysis, 200 μL of each tissue homogenate was mixed with 50 μL of IS solution (final IS concentration: 100 ng/mL) and 750 μL of ACN to reach a final volume of 1 mL. The mixture was centrifuged at 3500 rpm for 10 min at 20°C. The supernatant was collected, filtered through a 0.22 μm membrane, and transferred to injection vials for UPLC‐MS/MS analysis. When necessary, samples were diluted appropriately to ensure analyte concentrations fell within the validated linear range.
The pharmacokinetic and biodistribution study was conducted in accordance with ethical guidelines and approved by the Animal Ethics Committee of the Universidade Estadual do Centro‐Oeste, Brazil (Protocol No. 026/2023). Male Wistar rats (n = 6 for pharmacokinetics; n = 4 for biodistribution), weighing approximately 200 g, were housed under controlled environmental conditions (12 h light/dark cycle, 35% relative humidity, and temperature of 23°C ± 2°C). Animals had free access to food and water, which were withheld 10 h prior to drug administration and resumed 2 h afterward.
Each animal received a single oral dose of POH (47 mg/kg) and TMZ (2 mg/kg). For pharmacokinetic profiling, blood samples were collected via the tail vein into heparinized tubes at predefined time points: 0.5, 1, 2, 4, 8, 12, and 24 h post‐administration. For biodistribution analysis, a separate cohort of rats (n = 4) was sacrificed 4 h after dosing. Organs, including the brain, liver, lungs, kidneys, and spleen, were collected, homogenized, and stored at −20°C for subsequent quantification, as detailed in Section 3.2.

[2] = set-up: method as in Ostermann et al. [2004]; conditions: ref Ostermann et al. [2004]; cited from earlier work
[3] = rat brain, 4 h after single oral dose POH 47 mg/kg and TMZ 2 mg/kg
[4] = 4 h after single oral dose POH 47 mg/kg and TMZ 2 mg/kg

| Compound | brain concentration / CNS penetration, in words [1, 3] | tissue concentrations (brain, liver, spleen, kidney, lung), in words [1, 4] | hepatic accumulation, in words ([1]; rat liver, 4 h after single oral dose POH 47 mg/kg and TMZ 2 mg/kg) | concentration at 4 h ([1]; male, Wistar, rat brain, 4 h after single oral dose TMZ 2 mg/kg and POH 47 mg/kg) | share of the plasma concentration reaching brain tissues [2] |
| --- | --- | --- | --- | --- | --- |
| NC(=O)c1[nH]cnc1N [AIC, 5‐aminoimidazole‐4‐carboxamide] | lower brain concentrations | lowest tissue concentrations |  |  |  |
| C=C(C)[C@@H]1CC=C(C(=O)O)CC1 [PA, perillic acid] | limited brain penetration; also recorded: lower brain concentrations | mainly distributed to liver and kidneys | marked hepatic accumulation |  |  |
| Cn1nnc2c(C(N)=O)ncn2c1=O [TMZ, Temozolomide] | highest concentration in the brain | highest tissue concentrations in all organs |  | ~1000 ng/mL | ~ 20% |
